Measured values published in the NIST ThermoML archive (doi:10.1016/j.fluid.2011.06.011).

Test: xn = mol fraction of the nth substance listed
Details: Liquid; for speed of sound: Sing-around technique in a fixed-path interferometer; for mass density: Vibrating tube method

C=CC(C)(O)CCC=C(C)C (stereo not drawn) [3,7-dimethyl-1,6-octadien-3-ol] + CCO
Details	mass density, 283.15 K [kg/m3]	mass density, 298.15 K [kg/m3]	speed of sound, 283.15 K [m/s]	speed of sound, 298.15 K [m/s]
101 kPa, x1 = 0.0506	809.66	797.07	1222	–
101 kPa, x1 = 0.0507	–	–	–	1171.7
101 kPa, x1 = 0.1008	819.09	806.76	1245	1196.3
101 kPa, x1 = 0.1969	833.37	821.08	1281	1229.2
101 kPa, x1 = 0.2895	843.35	831.1	–	1253.6
101 kPa, x1 = 0.2959	–	–	1307.6	–
101 kPa, x1 = 0.3862	–	838.62	1325.8	1271.2
101 kPa, x1 = 0.3957	851.69	–	–	–
101 kPa, x1 = 0.4803	856.48	844.09	1339	–
101 kPa, x1 = 0.4834	–	–	–	1285
101 kPa, x1 = 0.593	861.02	848.66	1350.3	1294.7
101 kPa, x1 = 0.6838	863.65	851.31	1355.4	1300.7
101 kPa, x1 = 0.7832	–	–	1361	1306.5
101 kPa, x1 = 0.8438	866.82	854.5	–	–
101 kPa, x1 = 0.8941	867.74	855.41	1365.1	1310.7
101 kPa, x1 = 0.9286	868.3	855.96	1366.7	1312.2
101 kPa, x1 = 1	869.39	857	1370.6	1315.1
20000 kPa, x1 = 0.0511	824.1	812.6	–	–
20000 kPa, x1 = 0.1003	832.7	821.5	–	–
20000 kPa, x1 = 0.1962	845.8	834.6	–	–
20000 kPa, x1 = 0.2989	856	844.8	–	–
20000 kPa, x1 = 0.3996	863	851.7	–	–
20000 kPa, x1 = 0.5015	868.2	856.9	–	–
20000 kPa, x1 = 0.5982	871.9	860.6	–	–
20000 kPa, x1 = 0.6898	874.7	863.4	–	–
20000 kPa, x1 = 0.7929	877.2	865.8	–	–
20000 kPa, x1 = 0.8885	879.1	867.7	–	–
20000 kPa, x1 = 0.9435	880	868.6	–	–
20000 kPa, x1 = 1	880.8	869.4	–	–
25000 kPa, x1 = 0.0511	827.5	816.1	–	–
25000 kPa, x1 = 0.1003	836.1	824.9	–	–
25000 kPa, x1 = 0.1962	849	837.9	–	–
25000 kPa, x1 = 0.2989	859.1	848	–	–
25000 kPa, x1 = 0.3996	866	854.8	–	–
25000 kPa, x1 = 0.5015	871.2	860	–	–
25000 kPa, x1 = 0.5982	874.9	863.6	–	–
25000 kPa, x1 = 0.6898	877.6	866.3	–	–
25000 kPa, x1 = 0.7929	880.1	868.7	–	–
25000 kPa, x1 = 0.8885	882	870.7	–	–
25000 kPa, x1 = 0.9435	882.9	871.5	–	–
25000 kPa, x1 = 1	883.7	872.3	–	–
30000 kPa, x1 = 0.0511	830.7	819.6	–	–
30000 kPa, x1 = 0.1003	839	828.2	–	–
30000 kPa, x1 = 0.1962	851.9	841.1	–	–
30000 kPa, x1 = 0.2989	861.9	851	–	–
30000 kPa, x1 = 0.3996	868.8	857.8	–	–
30000 kPa, x1 = 0.5015	873.9	863	–	–
30000 kPa, x1 = 0.5982	877.5	866.5	–	–
30000 kPa, x1 = 0.6898	880.2	869.2	–	–
30000 kPa, x1 = 0.7929	882.7	871.6	–	–
30000 kPa, x1 = 0.8885	884.6	873.5	–	–
30000 kPa, x1 = 0.9435	885.4	874.4	–	–
30000 kPa, x1 = 1	886.1	875.2	–	–
35000 kPa, x1 = 0.0511	833.8	822.8	–	–
35000 kPa, x1 = 0.1003	842.2	831.4	–	–
35000 kPa, x1 = 0.1962	854.9	844.1	–	–
35000 kPa, x1 = 0.2989	864.7	854	–	–
35000 kPa, x1 = 0.3996	871.5	860.7	–	–
35000 kPa, x1 = 0.5015	876.7	865.8	–	–
35000 kPa, x1 = 0.5982	880.3	869.3	–	–
35000 kPa, x1 = 0.6898	882.9	872	–	–
35000 kPa, x1 = 0.7929	885.3	874.4	–	–
35000 kPa, x1 = 0.8885	887.2	876.3	–	–
35000 kPa, x1 = 0.9435	888.1	877.1	–	–
35000 kPa, x1 = 1	888.9	877.9	–	–
40000 kPa, x1 = 0.0511	836.8	826	–	–
40000 kPa, x1 = 0.1003	845.1	834.5	–	–
40000 kPa, x1 = 0.1962	857.6	847.1	–	–
40000 kPa, x1 = 0.2989	867.4	856.9	–	–
40000 kPa, x1 = 0.3996	874.1	863.5	–	–
40000 kPa, x1 = 0.5015	879.3	868.6	–	–
40000 kPa, x1 = 0.5982	882.8	872.1	–	–
40000 kPa, x1 = 0.6898	885.5	874.8	–	–
40000 kPa, x1 = 0.7929	887.9	877.1	–	–
40000 kPa, x1 = 0.8885	889.7	878.9	–	–
40000 kPa, x1 = 0.9435	890.6	879.7	–	–
40000 kPa, x1 = 1	891.4	880.6	–	–
